In PubChem BioAssay AID1626 (SRMLSC, 2009):

Tested on: M. tuberculosis H37Rv growth inhibition
Assay: M. tuberculosis H37Rv growth inhibitors, H37Rv strain (AID 1626)
Settings: for IC90: measured here: IC90 against H37Rv; for CC50: measured here: Vero cell cytotoxicity

Structure (SMILES)	IC50 [µM]	IC90 [µM]	CC50 [µM]
CC(=O)n1cc(N(C(=O)CCl)c2ccc(Cl)cc2)c2ccccc21	8.88	19.6	0.662
Cn1cnc([N+](=O)[O-])c1S(=O)(=O)c1cccc(Cl)c1	10.9	11.8	18.7
O=C(Cn1cnc2c(nnn2-c2ccccc2)c1=O)N1CCC(Cc2ccccc2)CC1	5.79	6.58	> 40
Cc1cc(C)n(C(=O)c2ccc([N+](=O)[O-])cc2[N+](=O)[O-])n1	7.05	12.6	–
COc1ccc2c(c1)sc(=N)n2C	8.91	11.7	> 40
Cc1ccc(OCCN2CCN(CC(O)Cn3c4ccccc4c4ccccc43)CC2)cc1 (centres undefined)	9.21	11.4	21.5
Cc1ccccc1OCc1n(CC(=O)OC2CC(C)CCC2C(C)C)c2ccccc2[n+]1C (centres undefined)	3.74	5.17	24.4
COc1cc(/C=C/c2ccc3c([N+](=O)[O-])cccc3n2)ccc1OCC(=O)O	2.72	6.3	–
FC(F)(F)c1ccc(CN2C[C@@H]3C(c4ccc(Cl)nc4)C4(c5cccnc5)CC3(C4)[C@H]2c2ccccc2)cc1 (some centres undefined)	8.98	18	> 40
CCCCc1ccc(NC=C2C(=O)OC3(CCCCC3)OC2=O)cc1	6.18	> 100	–
N=C1SC(c2ccccc2)C(=O)N1c1ncc(Cc2ccccc2)s1 (centres undefined)	26	> 100	34.9
CC(C)(C)c1ccc(-c2nc(NCc3cccnc3)c3ccccc3n2)cc1	4.81	7.46	> 40
COc1ccc(Cn2c(SCc3ccccc3C)nc3cc(OC)c(OC)cc3c2=N)cc1	2.24	3.02	6.78
O=C(c1cc2c(F)cccc2s1)N1CCCC1	7.87	> 100	–
CC(C)OC(=O)CSc1nnc(-c2ccc(Cl)cc2Cl)o1	< 0.195	9.2	–
Cc1ccc2nc(-c3ccccn3)c(Nc3ccccc3C)n2c1	1.52	2.24	3.42
CCOC(=O)c1ccc(-n2c(CCC(=O)O)ccc2-c2cccs2)cc1	–	> 100	–
Cc1ccc(-n2c(C)cc(C3N=C(N)Nc4nc5ccccc5n43)c2C)c(C)c1 (centres undefined)	8.26	10.8	> 40
CCOC(=O)COc1ccc2c(C#N)c3ccccn3c2c1	1.67	8.66	–
Cc1ccc(N2C(=O)C(F)(F)C2c2ccccc2)cc1 (centres undefined)	4.38	19.7	–
N=c1c2c(ncn1Cc1ccco1)Oc1c(ccc3ccccc13)C2c1ccccc1 (centres undefined)	3.88	5.43	8.95

Structure (SMILES)	IC50 [µM]	IC90 [µM]	CC50 [µM]
CC(=O)OCCNc1cc(SCc2ccco2)c2nonc2c1[N+](=O)[O-]	0.657	1.66	–
Cc1ccc(NC(=O)NCC2CCN(Cc3cccc(Cl)c3)CC2)cc1Cl	11.6	31.2	29.4
COCCCNC(=O)COC(=O)c1ccc(-c2nc3ccccc3s2)s1	14.4	26.9	> 40
CC(C)(C)c1ccc(C(=O)NCCCN2CCN(CCCNC(=O)c3ccc(C(C)(C)C)cc3)CC2)cc1	5.43	7.12	27.4
Cc1cc(C)c2c(CN3CCN(Cc4ccc5c(c4)OCO5)CC3)cc(=O)oc2c1C	19	> 100	–
COc1ccccc1Sc1nc(-c2ccccn2)ncc1OC	1.04	> 100	7.61
Nc1scc(-c2ccncc2)c1Cl	5.32	> 100	> 40
Nc1ccc2oc(-c3cccc(Br)c3)nc2c1	3.98	> 100	–
O=C(Nc1nnc(-c2ccc3c(c2)OCCO3)o1)c1ccc(Cc2ccccc2)cc1	1.7	> 100	38.1
Cc1cc(C(=O)CCl)c(C)n1Cc1ccco1	3.34	8.28	12.1
Oc1cnn(-c2ccccc2)c1	–	> 100	–
CCOc1ccc(NCC(=O)Nc2ccc(Cl)cc2C)cc1	8.53	> 100	–
COc1ccc(/C=C/C(=O)c2ccc(C)c([N+](=O)[O-])c2)cc1O	–	> 100	34.8
CCCOC(=O)c1ccc(NC(=O)C(=O)NCCN(CC)CC)cc1	53.1	> 100	–
CCOC(=O)c1c(C)n(C)c2ccc(OC(C)C(=O)OC)cc12 (centres undefined)	8.04	14.4	–
Cc1sc2nc(CN(C(=O)NC3CCCCC3)C3CCCC3)[nH]c(=O)c2c1C	6.11	26.3	> 40
COc1ccc(-c2nn(-c3ccccc3)cc2/C=N/N=C(N)N)cc1OC	13.3	22.6	32.3
CCCCCCC(=O)Nc1nc(C)c(-c2csc(Nc3ccccc3OC)n2)s1	5.48	9.63	> 40
CC(C)c1ccc(CNC(=O)CSCC(=O)Nc2ccc3ccccc3c2)cc1	18	> 100	–
C/C(=C\C(=O)c1ccncc1)Nc1ccccc1O	< 0.195	28.2	> 40
O=C(CNCc1ccco1)Nc1ccc(Oc2ccccc2)cc1	–	> 100	> 40

Structure (SMILES)	IC50 [µM]	IC90 [µM]	CC50 [µM]
O=C(Nc1cccnc1)c1c(O)c2cccc3c2n(c1=O)CC3	1.87	2.08	–
Cc1cc(C)nc(/N=C(\N)Nc2ccc(-c3ccccc3)cc2)n1	2.74	11	> 40
Cc1c(C(=O)N2CCCCC2)sc(NC(=O)C23CC4CC(CC(C4)C2)C3)c1C#N	40.8	> 100	–
COc1ccccc1/C=C/C(=O)c1ccc(NC(C)=O)cc1	–	–	22.8
Cc1cccc(N=Nc2c(N)n[nH]c2-c2ccc(Cl)cc2)c1	59.1	> 100	–
O=[N+]([O-])c1ccc(-c2nc(C(Cl)Cl)c3ccccc3n2)cc1	< 0.195	< 0.195	< 0.078
Oc1ccc(COCc2ccccc2)c2cccnc12	3	3.31	1.6
CCCNC(=O)c1nnsc1S(=O)c1ccc(Cl)cc1 (centres undefined)	8.74	10.5	8.53
COc1ccc(N=C2C(=O)Nc3c(C)cccc32)cc1	–	> 100	–
CCCCC(=O)OCC(=O)Nc1ccc(SC(F)F)cc1	–	> 100	–
Clc1ccc2c(c1)C1=C(C(c3ccncc3)O2)C(c2ccc(Br)cc2)n2ncnc2N1 (centres undefined)	2.91	3.29	> 40
CCn1cc(C(=O)NCc2cccc(F)c2)c(=O)c2cc(F)c(N3CCN(C(=O)c4ccco4)CC3)cc21	2.69	6.52	27
CCOC(=O)c1ccc(NC(=O)Oc2cc(C)c(Cl)cc2C(C)C)cc1	11.4	> 100	–
CCC(=O)Nc1nc2ccccc2n1Cc1ccc(C)cc1	1.39	11	> 40
Cn1nc(-c2ccc(Cl)cc2)c2cc(C(=O)N3CCN(c4ccccn4)CC3)sc21	2.49	4.36	> 40
O=c1cc(-c2ccccc2)nc(N2CCN(Cc3ccc4c(c3)OCO4)CC2)[nH]1	89	> 100	–
O=C(COC(=O)c1cccs1)c1ccc2c(c1)OCCO2	8.66	19.2	–
CCOC(=O)c1ccc(NC(=O)C2C3CCC(C3)C2C(=O)O)cc1 (centres undefined)	–	> 100	–
CCCCCCCCn1c2c(c(=N)c3ccccc31)CCC2	6.24	9.17	9.55
O=C(c1ccc(CNc2c(N3CCCC3)c(=O)c2=O)cc1)N1CC=C(c2ccccc2)CC1	26.2	> 100	–
CCCCOc1ccc(NC(=O)c2cnc(C)cn2)cc1	22.1	> 100	> 40

Structure (SMILES)	IC50 [µM]	IC90 [µM]	CC50 [µM]
O=C(COC(=O)c1ccccc1Br)NCCC1=CCCCC1	17.6	> 100	–
CCOc1ccc2ncc(S(=O)(=O)c3ccc(C)cc3)c(N3CCC4(CC3)OCCO4)c2c1	28.2	> 100	> 40
Oc1ccc2ccccc2c1CNc1cnc2ccccc2c1	1.42	> 100	–
O=C(Nc1nc(-c2ccncc2)cs1)C1c2ccccc2Oc2ccccc21	–	–	> 40
COc1ccc(NC(=O)CSc2ncn(-c3ccccc3)n2)cc1Cl	–	> 100	–
CCOC(=O)c1cnn(-c2nc3c(C)cccc3s2)c1C(F)(F)F	54.6	> 100	> 40
CCOc1ccc(NC(=O)c2ccccc2CO)cc1	9.45	> 100	–
Cc1ccc2c(c1)Cc1nc3ccccc3nc1-2	83.5	> 100	> 40
CCCCCc1cc(=O)oc2c(C(CCN3CCCC3)c3ccc(N(C)C)cc3)c(OC)cc(OC)c12 (centres undefined)	4.38	6.04	14
COc1ccc(C2=CC(c3c(C)nn(-c4ccccc4)c3Cl)n3nnnc3N2)cc1OC (centres undefined)	8.88	14.1	–
COC(=O)c1cccc(OC(N)=O)c1	72.9	> 100	–
CCCCCc1cc(=O)oc2c(C(CCN3CCCC(C)C3)c3ccc(OC)cc3)c(OC)cc(OC)c12 (centres undefined)	2.18	3.26	17.1
c1ccc(CN2CCN(c3nc(NCc4ccco4)c4ccccc4n3)CC2)cc1	7.96	10.3	35.1
O=C(c1c[nH]c(C(=O)N2CCN(c3ccccc3F)CC2)c1)c1cccc(Cl)c1Cl	–	–	16.9
COC(=O)c1cc(NC(=O)N2c3ccccc3Sc3ccccc32)cc(C(=O)OC)c1	–	–	> 40
CCOC(=O)N1CCN(C(=O)CSc2nnc(-c3cc(OC)cc(OC)c3)o2)CC1	2.82	7.03	–
CC1Cc2ccccc2N1C(=O)COC(=O)c1ccc(Cl)nc1 (centres undefined)	10.7	> 100	–
COc1cnc(-c2ccccn2)nc1Sc1ccc(C)cc1	< 0.195	2.92	4.24
Cc1ccc2nc(Cl)c(/C=C/C(=O)c3ccco3)cc2c1	2.26	4.01	25
O=C(COC(=O)c1c2c(nc3ccccc13)/C(=C/c1cccc([N+](=O)[O-])c1)CCC2)NC1CCS(=O)(=O)C1 (centres undefined)	6.99	> 100	34
